The target of assay [1] is T1, AhR (Homo sapiens, UniProt P35869).
T1 sequence (P35869 11-848): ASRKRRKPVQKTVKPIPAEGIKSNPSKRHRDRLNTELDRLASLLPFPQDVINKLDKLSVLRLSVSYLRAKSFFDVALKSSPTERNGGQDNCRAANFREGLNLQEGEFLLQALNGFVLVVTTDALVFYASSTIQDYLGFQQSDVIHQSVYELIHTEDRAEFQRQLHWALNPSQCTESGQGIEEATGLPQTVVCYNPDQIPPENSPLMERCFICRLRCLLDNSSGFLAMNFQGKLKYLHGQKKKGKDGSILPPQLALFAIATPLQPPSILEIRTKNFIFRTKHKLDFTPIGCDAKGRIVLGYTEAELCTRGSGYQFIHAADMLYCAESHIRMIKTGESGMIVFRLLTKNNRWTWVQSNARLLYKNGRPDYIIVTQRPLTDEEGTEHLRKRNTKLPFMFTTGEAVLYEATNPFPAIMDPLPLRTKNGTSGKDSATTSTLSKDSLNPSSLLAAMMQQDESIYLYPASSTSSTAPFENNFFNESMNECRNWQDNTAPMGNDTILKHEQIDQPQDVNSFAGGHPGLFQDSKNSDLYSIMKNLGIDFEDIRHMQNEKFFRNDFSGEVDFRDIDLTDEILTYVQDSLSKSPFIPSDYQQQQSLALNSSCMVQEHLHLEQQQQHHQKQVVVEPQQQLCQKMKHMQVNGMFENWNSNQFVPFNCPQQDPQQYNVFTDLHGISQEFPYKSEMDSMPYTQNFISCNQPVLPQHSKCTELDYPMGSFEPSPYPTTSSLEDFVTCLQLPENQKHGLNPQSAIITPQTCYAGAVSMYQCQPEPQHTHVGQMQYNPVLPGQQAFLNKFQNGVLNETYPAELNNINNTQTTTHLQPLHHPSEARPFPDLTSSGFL
The assay is described as follows: Reporter gene assay in AZ-AHR cells, agonist analyses (luciferase). As to the method: (§1) In the first series of experiments, we evaluated the agonistic and antagonistic effects of MICT on the AhR activation. […] The antagonistic effects of MICT were evaluated against typical full agonists of the AhR, comprising TCDD, BaP, and FICZ, which were applied at fixed concentrations corresponding to their EC80.
(§2) Following the treatments, we lysed cells, and luciferase activity was measured. Experiments were performed at least in four consecutive cell passages. Incubations were performed in quadruplicates (technical replicates). In agonist analyses, the data from a representative experiment, expressed as a fold induction of luciferase activity over control cells, are shown. In antagonist analyses, the data are a percentage of maximal induction, and they are the mean ± SD.
(§3) Then, cells were lysed, and luciferase activity was measured using the Tecan Infinite M200 plate luminometer (Schoeller Instruments, Czech Republic). The experiments were performed in at least four consecutive cell passages, and the treatments were in quadruplicates (technical replicates). The values of half-maximal effective concentration (EC50) for each MICT, and half-maximal inhibitory concentration (IC50—where appropriate) were calculated.
Supplementary Figure 2. Tryptophan effects in culture medium on AhR activity. (A) Time-course of Trp
levels in culture media from hepatic (AZ-AHR), instestinal (LS174T) and skin (HaCaT) cells. Determined by
HPLC. (B) Induction of AhR-dependent luciferase activity in AZ-AHR cells incubated for 24 h with TCDD,
Indole and Trp in Trp/serum-free culture medium. (C) Induction of AhR-dependent luciferase activity in
AZ-AHR cells incubated for 24 h with TCDD and Indole in standard (+Trp/+FBS), serum-free (+Trp/-FBS),
Trp-free (-Trp/+FBS) and Trp/serum-free (-Trp/-FBS) culture medium. […]
A general note: A reporter such as luciferase makes a cellular process visible.

The target of assay [2] is T1, AhR. The assay can be described thus: Reporter gene assay in AZ-AHR cells, antagonist analyses against TCDD, BaP, FICZ. The conditions noted are these: for antagonistic effect against full agonists / effect on AhR activation by BaP / effect on AhR activation by FICZ / effect on AhR activation by TCDD: AZ-AHR cells, 24 h; for antagonistic effect against full agonists: TCDD, BaP and FICZ at EC80; for effect on AhR activation by BaP: BaP 15.8 µM; for effect on AhR activation by FICZ: FICZ 22.6 µM; for effect on AhR activation by TCDD: TCDD 13.5 nM. As to the method:
as §1
as §2, with “AZ-AHR cells were incubated for 24 h with vehicle (DMSO; 0.1% v/v) and increasing concentrations of MICT, in the absence (agonist analyses) or the presence (antagonist analyses) of TCDD (13.5 nM), BaP (15.8 µM) and FICZ (22.6 µM). Following” for “Following”
as §3, with “AZ-AHR cells were incubated for 24 h with vehicle (DMSO; 0.1% v/v) and increasing concentrations of tested MICT in the presence or absence of TCDD (13.5 nM), FICZ (22.6 µM), or BaP (15.8 µM). Then,” for “Then,”

Where [3] appears, read: EC50, AZ-AHR cells, 24 h, agonist analyses.
The mark [4] stands for this setting: read-out: fold induction of luciferase activity (efficacy).

“And” between values parts separate entries of the source, which are not always exact repeats. Equal entries are not always repeated. Where two headings read alike, the source gives them in different places.

Take `NCCc1c[nH]c2ccccc12` [TA, tryptamine]: the EC50 (as a rule, the concentration that produces a half-maximal response) at AhR [1] (setting [3]) worked out at 83.1 ± 12.7 µM. In addition, at AhR [1] (Table 1 summary class), the “Efficacy (EMAX)” value is “medium” and the “Potency (EC50)” value is reported as “low”. For the same compound, the “antagonistic effect against full agonists” value (“antagonistic effect” for short) at AhR [2] was “dose-dependent antagonistic effect”. The “Antagonism (IC50)” value on AhR [2] (Table 1 summary class) is “yes–all ligands”.

Take `OCCc1c[nH]c2ccccc12` [IET, indole-3-ethanol]: the concentration for a half-maximal effect (EC50) on AhR [1] (setting [3]) came out at 98 ± 6.41 µM. At AhR [1] (Table 1 summary class), the “Efficacy (EMAX)” value is on record as “medium” and the “Potency (EC50)” value was “low”. The “antagonistic effect” value on AhR [2] is “no antagonistic effects”.

For the compound `c1ccc2[nH]ccc2c1` [IND, indole], on AhR [1], the “Efficacy (EMAX)” value is on record as “high”, the “Potency (EC50)” value is on record as “very low” and the induced luciferase activity worked out at 500 fold. The EC50 at AhR [1] (EC50) was ~1500 µM and 1480 µM. Further, at AhR [1] (setting [4]), the fold induction at 10000 µM lay in the range of 200 to 600. Also, the “antagonistic effect” value on AhR [2] was “dose-dependent antagonistic effect”. At AhR [2] (Table 1 summary class), the “Antagonism (IC50)” value was “yes–all ligands”.

Consider `NC(=O)Cc1c[nH]c2ccccc12` [IAD, indole-3-acetamide], for which the 50% effective concentration (EC50) on AhR [1] (setting [3]) stood at 99.9 ± 2.86 µM. In addition, on AhR [1] (Table 1 summary class), the “Efficacy (EMAX)” value is listed as “high” and the “Potency (EC50)” value is reported as “low”. Besides, on AhR [2], the “effect on AhR activation by BaP” value was “potentiated”, the “effect on AhR activation by FICZ” value was “potentiated” and the “effect on AhR activation by TCDD” value was “antagonized”.

Take `O=C(O)C(O)Cc1c[nH]c2ccccc12` (stereo not drawn) [ILA, indole-3-lactate]: the “Potency (EC50)” value at AhR [1] is on record as “low”. Further, at AhR [1] (setting [3]), the half-maximal effective concentration (EC50) came to 82 ± 17.1 µM. In addition, on AhR [1] (Table 1 summary class), the “Efficacy (EMAX)” value is recorded as “low”. On AhR [2], the “Antagonism (IC50)” value is given as “none” and the “antagonistic effect” value is “no antagonistic effects”.

With `Cc1c[nH]c2ccccc12` [3MI, skatole], the concentration giving a half-maximal response (EC50) at AhR [1] (setting [3]) turned out to be 103 ± 1.78 µM. On AhR [1] (Table 1 summary class), the “Efficacy (EMAX)” value is on record as “medium” and the “Potency (EC50)” value was “low”. Also, on AhR [2], the “effect on AhR activation by BaP” value is reported as “dose-dependently inhibited”, the “effect on AhR activation by TCDD” value is “dose-dependently inhibited” and the “antagonistic effect” value was “ligand-selective antagonism”. In addition, the “Antagonism (IC50)” value on AhR [2] (Table 1 summary class) was “ligand selective”.

In the case of `Clc1cc2c(cc1Cl)Oc1cc(Cl)c(Cl)cc1O2` [TCDD, 2,3,7,8-tetrachlorodibenzo-p-dioxin, reference compound], the induced luciferase activity on AhR [1] (AZ-AHR cells, 24 h, Trp-free/serum-free medium) is listed as 10000 fold.

Consider `O=C(O)C(=O)Cc1c[nH]c2ccccc12` [IPY, indole-3-pyruvate], for which the EC50 at AhR [1] (setting [3]) amounted to 98.5 ± 10.1 µM. On AhR [1] (Table 1 summary class), the “Efficacy (EMAX)” value is “high” and the “Potency (EC50)” value is listed as “low”. Moreover, at AhR [2], the “effect on AhR activation by BaP” value was “potentiated”, the “effect on AhR activation by FICZ” value is given as “potentiated” and the “effect on AhR activation by TCDD” value is on record as “antagonized”. For the same compound, the “Antagonism (IC50)” value at AhR [2] (Table 1 summary class) is given as “ligand selective”.

In the case of `O=Cc1c[nH]c2ccccc12` [IA, indole-3-aldehyde], on AhR [1] (setting [3]), the EC50 was 62.2 µM and 62 µM. Further, on AhR [1] (Table 1 summary class), the “Efficacy (EMAX)” value was “low” and the “Potency (EC50)” value is listed as “low”. Besides, at AhR [2], the 50% inhibitory concentration (IC50) (usually the midpoint of a concentration-inhibition curve) lay in the range of 100 to 200 µM and the “antagonistic effect” value is on record as “dose-dependent antagonistic effect”. For the same compound, the “Antagonism (IC50)” value on AhR [2] (Table 1 summary class) was “yes–all ligands”.

Turning to `O=C(O)/C=C/c1c[nH]c2ccccc12` [IAC, indole-3-acrylate], the EC50 on AhR [1] (setting [3]) came to 42.3 ± 3.32 µM. Moreover, on AhR [1] (Table 1 summary class), the “Efficacy (EMAX)” value is “medium” and the “Potency (EC50)” value is on record as “low”. Further, at AhR [1] (setting [4]), the fold induction at 100 µM lay within 40 to 100. For the same compound, the “antagonistic effect” value on AhR [2] was “no antagonistic effects”. The “Antagonism (IC50)” value on AhR [2] (Table 1 summary class) is listed as “none”.
